Patent US20210121527A1, “METHODS OF TREATING MINIMAL RESIDUAL CANCER” (ICAHN SCHOOL OF MEDICINE AT MOUNT SINAI, priority 2018, published 2021)

Assays:
MCF10A-HER2 cells = assay: Cell viability dose-response (Cell Titer Blue) with or without thapsigargin; format: cell-based; settings: Homo sapiens, 48 hours, absence or presence of thapsigargin 2 nM, dashed line of FIG. 2D
Protocol: Reagents, cell culture, and treatments: EGF was obtained from PeproTech (Rocky Hill, N.J.) and used at 100 ng/ml. Thapsigargin was from Sigma (St. Louis, Mo.) and used at 2 nM. The ZR75.1-H2B-Dendra2 cell line was generated by stable transfection of the H2B-Dendra2 plasmid (Gurskaya et al., “Engineering of a Monomeric Green-to-Red Photoactivatable Fluorescent Protein Induced by Blue Light,” Nat. Biotechnol. 24:461-465 (2006), which is hereby incorporated by reference in its entirety). For 3D cultures, MCF10A-HER2, SKBR3, and ZR75.1-H2B-Dendra2 cells were plated in growth factor-reduced Matrigel (Corning, Corning, N.Y.) and grown as described previously (Avivar-Valderas et al., “Regulation of Autophagy during ECM Detachment is Linked to a Selective Inhibition of mTORC1 by PERK,” Oncogene 32(41):4932-40 (2013), which is hereby incorporated by reference in its entirety). When referring to “low density,” 3,500 cells/8-well were seeded, and for “high density” 20,000 cells/8-well. Treatments with vehicle (DMSO) or LY4 (2 μM) were replaced every 24 hours for 2D and every 48 hours for 3D cultures.

ERBB2 = target: T1, ERBB2 (Homo sapiens, UniProt P04626); assay: DiscoveRx scanMAX kinase profiling; format: binding; settings: read-out: Direct inhibitory activity on ERBB2 (KINOMEscan)
T1 construct: purchased DiscoverX (San Diego, Calif.) scanMAX
T1 sequence (P04626 23-1255): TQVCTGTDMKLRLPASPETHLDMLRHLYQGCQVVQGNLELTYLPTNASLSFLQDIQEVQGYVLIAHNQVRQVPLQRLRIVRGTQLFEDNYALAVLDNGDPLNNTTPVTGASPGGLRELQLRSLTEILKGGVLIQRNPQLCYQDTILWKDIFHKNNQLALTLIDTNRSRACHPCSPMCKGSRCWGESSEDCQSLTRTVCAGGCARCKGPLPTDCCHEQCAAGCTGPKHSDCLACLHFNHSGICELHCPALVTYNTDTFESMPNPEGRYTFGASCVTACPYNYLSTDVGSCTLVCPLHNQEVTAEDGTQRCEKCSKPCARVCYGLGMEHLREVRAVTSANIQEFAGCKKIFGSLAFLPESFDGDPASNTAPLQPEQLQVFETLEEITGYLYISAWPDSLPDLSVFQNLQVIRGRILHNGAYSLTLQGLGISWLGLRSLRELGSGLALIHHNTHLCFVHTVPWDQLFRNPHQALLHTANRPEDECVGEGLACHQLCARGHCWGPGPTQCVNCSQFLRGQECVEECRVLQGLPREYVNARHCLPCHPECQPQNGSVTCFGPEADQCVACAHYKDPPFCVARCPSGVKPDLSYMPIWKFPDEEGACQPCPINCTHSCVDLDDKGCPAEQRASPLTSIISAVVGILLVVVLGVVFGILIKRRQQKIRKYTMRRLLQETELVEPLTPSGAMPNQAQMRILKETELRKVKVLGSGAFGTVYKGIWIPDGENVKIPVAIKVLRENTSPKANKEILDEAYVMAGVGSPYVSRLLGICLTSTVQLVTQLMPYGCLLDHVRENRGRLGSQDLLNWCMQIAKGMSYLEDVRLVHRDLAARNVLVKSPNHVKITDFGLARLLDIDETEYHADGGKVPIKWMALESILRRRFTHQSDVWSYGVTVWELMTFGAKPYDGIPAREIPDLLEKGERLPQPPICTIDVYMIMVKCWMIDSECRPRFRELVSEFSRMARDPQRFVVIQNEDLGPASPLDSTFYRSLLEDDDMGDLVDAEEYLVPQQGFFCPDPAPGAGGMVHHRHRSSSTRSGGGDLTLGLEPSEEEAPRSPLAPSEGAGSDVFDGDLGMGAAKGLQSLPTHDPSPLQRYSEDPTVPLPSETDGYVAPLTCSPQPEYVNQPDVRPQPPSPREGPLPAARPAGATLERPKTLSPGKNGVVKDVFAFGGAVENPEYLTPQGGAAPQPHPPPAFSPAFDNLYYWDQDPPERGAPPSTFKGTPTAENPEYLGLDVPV
Protocol: (§1) Biochemical assays: Recombinant human EIF2AK3 (PERK) catalytic domain (amino acids 536-1116; Cat # PV5107), GFP-eIF2a (Cat # PV4809) substrate, and Terbium-labelled phospho-eIF2a antibody (Cat # PR8956B) were purchased from Invitrogen (Carlsbad, Calif.). HIS-SUMO-GCN2 catalytic domain (amino acids 584-1019) was expressed and purified from E. coli. TR-FRET kinase assays were performed in the absence or presence of inhibitors in a reaction buffer consisting of 50 mM HEPES, pH 7.5, 10 mMMgCl2, 1.0 mM EGTA, and 0.01% Brij-35, and 100-200 nM GFP-eIF2a substrate. […] Following the addition of test compound, the reaction was initiated by addition of enzyme and incubated at room temperature for 45 minutes. The reaction was stopped by addition of EDTA to a final concentration of 10 mM and Terbium-labelled phospho-eIF2α antibody was added at a final concentration of 2 nM and incubated for 90 minutes. The resulting fluorescence was monitored in an EnVison® Multilabel reader (PerkinElmer, Waltham, Mass.). TR-FRET ratios and the resulting IC50 values were determined from the fitted inhibition curves. Biochemical specificity profiling was performed at Cerep (Redmond, Wash.) and DiscoverX (San Diego, Calif.).

ERBB3 = target: T2, ERBB3 (Homo sapiens, UniProt P21860); assay: DiscoveRx scanMAX kinase profiling; format: binding; settings: read-out: Direct inhibitory activity on ERBB3 (KINOMEscan)
T2 construct: purchased DiscoverX (San Diego, Calif.) scanMAX
T2 sequence (P21860 20-1342): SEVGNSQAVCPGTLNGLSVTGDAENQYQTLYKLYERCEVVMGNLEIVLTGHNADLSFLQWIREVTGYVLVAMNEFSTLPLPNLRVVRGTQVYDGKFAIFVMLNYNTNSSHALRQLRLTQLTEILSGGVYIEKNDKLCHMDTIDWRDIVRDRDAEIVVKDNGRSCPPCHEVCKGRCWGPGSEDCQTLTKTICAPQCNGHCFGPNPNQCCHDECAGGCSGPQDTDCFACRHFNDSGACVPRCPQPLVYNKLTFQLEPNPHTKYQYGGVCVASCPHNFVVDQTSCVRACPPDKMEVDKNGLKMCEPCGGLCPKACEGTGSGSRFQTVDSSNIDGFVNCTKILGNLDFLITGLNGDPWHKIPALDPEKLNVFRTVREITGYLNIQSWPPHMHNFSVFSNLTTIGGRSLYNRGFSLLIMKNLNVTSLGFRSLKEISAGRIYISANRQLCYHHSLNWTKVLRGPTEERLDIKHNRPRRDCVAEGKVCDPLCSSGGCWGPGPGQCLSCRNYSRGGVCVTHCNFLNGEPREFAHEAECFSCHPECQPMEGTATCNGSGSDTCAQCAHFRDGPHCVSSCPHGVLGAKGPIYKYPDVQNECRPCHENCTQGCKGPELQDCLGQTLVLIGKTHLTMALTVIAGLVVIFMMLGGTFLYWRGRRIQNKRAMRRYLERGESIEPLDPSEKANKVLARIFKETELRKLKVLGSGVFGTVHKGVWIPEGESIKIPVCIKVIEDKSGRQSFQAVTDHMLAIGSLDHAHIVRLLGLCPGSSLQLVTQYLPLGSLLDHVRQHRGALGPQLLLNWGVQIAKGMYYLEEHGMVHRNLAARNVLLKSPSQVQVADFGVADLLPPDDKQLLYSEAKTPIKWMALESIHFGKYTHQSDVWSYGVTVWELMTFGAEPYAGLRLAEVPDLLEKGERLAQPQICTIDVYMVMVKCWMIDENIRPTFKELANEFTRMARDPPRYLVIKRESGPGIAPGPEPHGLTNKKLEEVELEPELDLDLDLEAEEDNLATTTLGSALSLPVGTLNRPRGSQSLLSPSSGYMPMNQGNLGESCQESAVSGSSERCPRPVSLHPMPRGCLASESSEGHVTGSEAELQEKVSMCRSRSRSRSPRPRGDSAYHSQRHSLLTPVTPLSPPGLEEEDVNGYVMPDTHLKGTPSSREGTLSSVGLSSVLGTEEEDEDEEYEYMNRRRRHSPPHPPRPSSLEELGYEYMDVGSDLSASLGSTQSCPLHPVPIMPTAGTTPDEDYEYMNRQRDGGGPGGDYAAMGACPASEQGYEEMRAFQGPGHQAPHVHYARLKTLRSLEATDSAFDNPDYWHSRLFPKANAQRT
Protocol: as §1

ERK5 (MAPK7) = target: T3, ERK5 (MAPK7) (Homo sapiens, UniProt Q13164); assay: DiscoveRx scanMAX kinase profiling; format: binding; settings: read-out: Direct inhibitory activity on ERK5 (KINOMEscan)
T3 construct: purchased DiscoverX (San Diego, Calif.) scanMAX
T3 sequence (Q13164 whole entry): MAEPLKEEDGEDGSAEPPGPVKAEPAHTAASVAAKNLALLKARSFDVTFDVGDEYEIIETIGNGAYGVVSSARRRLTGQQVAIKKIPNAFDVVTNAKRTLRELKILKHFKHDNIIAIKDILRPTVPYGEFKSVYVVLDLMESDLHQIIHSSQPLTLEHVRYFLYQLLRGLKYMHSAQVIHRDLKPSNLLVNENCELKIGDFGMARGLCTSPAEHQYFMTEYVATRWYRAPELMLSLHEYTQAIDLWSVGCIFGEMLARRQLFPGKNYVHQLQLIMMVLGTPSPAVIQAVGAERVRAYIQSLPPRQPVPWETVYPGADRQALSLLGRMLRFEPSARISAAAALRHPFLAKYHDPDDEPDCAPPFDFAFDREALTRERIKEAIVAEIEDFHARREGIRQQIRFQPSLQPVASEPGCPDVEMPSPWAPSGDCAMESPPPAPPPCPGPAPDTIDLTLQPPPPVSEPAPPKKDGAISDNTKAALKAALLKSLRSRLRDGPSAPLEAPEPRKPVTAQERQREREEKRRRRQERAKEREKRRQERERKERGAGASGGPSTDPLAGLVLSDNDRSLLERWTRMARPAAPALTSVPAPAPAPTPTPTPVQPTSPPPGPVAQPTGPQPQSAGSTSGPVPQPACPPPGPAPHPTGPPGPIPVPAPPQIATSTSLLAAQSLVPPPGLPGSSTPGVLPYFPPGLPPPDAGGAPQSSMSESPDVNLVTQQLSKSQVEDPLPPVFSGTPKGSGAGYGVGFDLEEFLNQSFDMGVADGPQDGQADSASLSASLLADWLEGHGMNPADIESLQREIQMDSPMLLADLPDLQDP
Protocol: as §1

ERK8 (MAPK15) = target: T4, ERK8 (MAPK15) (Homo sapiens, UniProt Q8TD08); assay: DiscoveRx scanMAX kinase profiling; format: binding; settings: read-out: Direct inhibitory activity on ERK8 (KINOMEscan)
T4 construct: purchased DiscoverX (San Diego, Calif.) scanMAX
T4 sequence (Q8TD08 1-544): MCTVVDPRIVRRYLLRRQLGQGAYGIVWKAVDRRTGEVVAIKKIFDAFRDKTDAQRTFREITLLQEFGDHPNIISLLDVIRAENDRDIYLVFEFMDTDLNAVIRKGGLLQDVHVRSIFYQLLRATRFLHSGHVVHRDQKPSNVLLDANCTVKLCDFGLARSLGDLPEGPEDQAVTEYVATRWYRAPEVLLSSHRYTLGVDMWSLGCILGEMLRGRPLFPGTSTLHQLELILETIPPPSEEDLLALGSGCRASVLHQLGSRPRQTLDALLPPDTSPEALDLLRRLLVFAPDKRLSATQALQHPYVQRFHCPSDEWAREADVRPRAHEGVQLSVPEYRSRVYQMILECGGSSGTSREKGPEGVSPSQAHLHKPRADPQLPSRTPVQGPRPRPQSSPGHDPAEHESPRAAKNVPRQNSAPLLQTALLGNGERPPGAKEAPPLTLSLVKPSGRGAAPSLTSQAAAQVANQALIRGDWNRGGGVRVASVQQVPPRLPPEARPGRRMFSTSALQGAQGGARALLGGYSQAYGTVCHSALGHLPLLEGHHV
Protocol: as §1

PIK3C2B = target: T5, PIK3C2B (Homo sapiens, UniProt O00750); assay: DiscoveRx scanMAX kinase profiling; format: binding; settings: read-out: Direct inhibitory activity on PIK3C2B (KINOMEscan)
T5 construct: purchased DiscoverX (San Diego, Calif.)
Protocol: as §1

PIK3CA = target: T6, PIK3CA (Homo sapiens, UniProt P42336); assay: DiscoveRx scanMAX kinase profiling; format: binding; settings: read-out: Direct inhibitory activity on PIK3CA (KINOMEscan)
T6 construct: purchased DiscoverX (San Diego, Calif.)
T6 sequence (P42336 whole entry): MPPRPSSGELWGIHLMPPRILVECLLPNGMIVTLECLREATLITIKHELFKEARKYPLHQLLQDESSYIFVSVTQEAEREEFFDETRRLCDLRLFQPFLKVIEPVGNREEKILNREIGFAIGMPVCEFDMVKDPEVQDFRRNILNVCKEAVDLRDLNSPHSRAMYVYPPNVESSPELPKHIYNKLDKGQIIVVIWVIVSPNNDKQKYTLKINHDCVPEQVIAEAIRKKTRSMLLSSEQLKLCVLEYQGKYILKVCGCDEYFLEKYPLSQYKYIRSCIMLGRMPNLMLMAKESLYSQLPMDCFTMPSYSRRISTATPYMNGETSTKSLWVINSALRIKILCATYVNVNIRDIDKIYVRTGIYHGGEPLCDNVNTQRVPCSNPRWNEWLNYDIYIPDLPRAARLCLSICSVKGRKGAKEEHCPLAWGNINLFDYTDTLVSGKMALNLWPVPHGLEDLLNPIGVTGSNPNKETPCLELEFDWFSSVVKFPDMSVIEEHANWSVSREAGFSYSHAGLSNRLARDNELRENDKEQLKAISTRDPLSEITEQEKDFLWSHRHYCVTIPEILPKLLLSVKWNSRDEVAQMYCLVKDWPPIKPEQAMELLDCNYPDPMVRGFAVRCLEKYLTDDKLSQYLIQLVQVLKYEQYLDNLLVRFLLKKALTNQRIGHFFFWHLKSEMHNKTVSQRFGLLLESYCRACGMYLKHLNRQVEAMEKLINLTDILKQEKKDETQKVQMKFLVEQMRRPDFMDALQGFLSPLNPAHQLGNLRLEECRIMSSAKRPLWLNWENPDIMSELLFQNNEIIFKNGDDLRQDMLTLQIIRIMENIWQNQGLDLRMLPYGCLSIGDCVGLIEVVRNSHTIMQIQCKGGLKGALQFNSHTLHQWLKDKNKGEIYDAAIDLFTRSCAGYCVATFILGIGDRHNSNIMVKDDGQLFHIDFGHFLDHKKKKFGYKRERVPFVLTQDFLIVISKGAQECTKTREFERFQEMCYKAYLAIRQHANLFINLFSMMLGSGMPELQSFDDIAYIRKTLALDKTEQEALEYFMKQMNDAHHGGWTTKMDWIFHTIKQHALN
Protocol: as §1

PIK3CB = target: T7, PIK3CB (Homo sapiens, UniProt P42338); assay: DiscoveRx scanMAX kinase profiling; format: binding; settings: read-out: Direct inhibitory activity on PIK3CB (KINOMEscan)
T7 construct: purchased DiscoverX (San Diego, Calif.)
Protocol: as §1

SYK = target: T8, SYK (Homo sapiens, UniProt P43405); assay: DiscoveRx scanMAX kinase profiling; format: binding; settings: read-out: Direct inhibitory activity on SYK (KINOMEscan)
T8 construct: purchased DiscoverX (San Diego, Calif.) scanMAX
Protocol: as §1

| Compound | inhibition at 0.2 µM (ERBB2) | inhibition at 2 µM (ERBB2) | inhibition at 20 µM (ERBB2) | inhibition at 0.2 µM (ERBB3) | inhibition at 2 µM (ERBB3) | inhibition at 20 µM (ERBB3) | inhibition at 0.2 µM (ERK5 (MAPK7)) | inhibition at 2 µM (ERK5 (MAPK7)) | inhibition at 20 µM (ERK5 (MAPK7)) | inhibition at 0.2 µM (ERK8 (MAPK15)) | inhibition at 2 µM (ERK8 (MAPK15)) | inhibition at 20 µM (ERK8 (MAPK15)) | inhibition at 0.2 µM (PIK3C2B) | inhibition at 2 µM (PIK3C2B) | inhibition at 20 µM (PIK3C2B) | inhibition at 0.2 µM (PIK3CA) | inhibition at 2 µM (PIK3CA) | inhibition at 20 µM (PIK3CA) | inhibition at 0.2 µM (PIK3CB) | inhibition at 2 µM (PIK3CB) | further results |
| --- | --- | --- | --- | --- | --- | --- | --- | --- | --- | --- | --- | --- | --- | --- | --- | --- | --- | --- | --- | --- | --- |
| Cc1cc(NC(=O)[C@H](O)c2cc(F)cc(F)c2)ccc1-c1cnc(N)c(C(=O)NC(C)C)c1 [LY4, 2-amino-5-[4-[[(2R)-2-(3,5-difluorophenyl)-2-hydroxy-acetyl]amino]-2-methyl-phenyl]-N-isopropyl-pyridine-3-carboxamide] | 0% | 0% | 0% | 0% | 0% | 0% | 0% | 0% | 4% | 0% | 0% | 0% | 40% | 39% | 94% | 9% | 0% | 8% | 0% | 0% | IC50 (MCF10A-HER2 cells): ~9 nM; inhibition at 20 µM (PIK3CB): 12%; inhibition at 0.2 µM (SYK): 0%; inhibition at 2 µM (SYK): 0%; inhibition at 20 µM (SYK): 0% |
| Cc1cccc(CC(=O)N2CCc3c2ccc(-c2cn(C)c4ncnc(N)c24)c3F)n1 [GSK2656157, reference compound] | 57% | 64% | 97% | 40% | 22% | 53% | 4% | 23% | 12% | 0% | 3% | 6% | 0% | 9% | 22% | 0% | 8% | 0% | 0% | 0% | inhibition at 20 µM (PIK3CB): 0%; inhibition at 0.2 µM (SYK): 0%; inhibition at 2 µM (SYK): 12%; inhibition at 20 µM (SYK): 23% |
